Biological target: T1, SENP1 (Homo sapiens, UniProt Q9P0U3)
T1 sequence (Q9P0U3 1-644): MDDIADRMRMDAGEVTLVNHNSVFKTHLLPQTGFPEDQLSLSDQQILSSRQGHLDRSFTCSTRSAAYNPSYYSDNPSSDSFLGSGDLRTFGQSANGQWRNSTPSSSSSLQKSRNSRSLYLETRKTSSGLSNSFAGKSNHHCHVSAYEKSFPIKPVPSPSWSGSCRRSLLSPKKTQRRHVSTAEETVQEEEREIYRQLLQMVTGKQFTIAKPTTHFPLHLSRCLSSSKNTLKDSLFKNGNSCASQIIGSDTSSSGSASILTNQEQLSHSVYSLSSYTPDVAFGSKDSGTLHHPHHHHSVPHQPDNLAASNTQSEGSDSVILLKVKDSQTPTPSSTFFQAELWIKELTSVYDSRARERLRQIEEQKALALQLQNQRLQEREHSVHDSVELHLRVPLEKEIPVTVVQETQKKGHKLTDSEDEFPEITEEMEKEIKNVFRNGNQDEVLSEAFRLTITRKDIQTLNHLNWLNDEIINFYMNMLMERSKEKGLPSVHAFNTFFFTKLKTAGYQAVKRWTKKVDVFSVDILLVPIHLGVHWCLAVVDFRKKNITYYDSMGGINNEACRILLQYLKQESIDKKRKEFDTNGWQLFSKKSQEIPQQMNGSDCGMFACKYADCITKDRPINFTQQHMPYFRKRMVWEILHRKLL
Experiment: Cellular thermal shift assay
Assay type: cell-based
Parameters: endogenous in cells; host or cells: IGROV1 CR cells
Conditions: IGROV1 CR cells, 4 h, higher temperatures
Protocol: FIGURE 2 UA directly interacts with Sentrin‐specific protease 1 (SENP1). (A) Cellular thermal shift assay to examine the interaction of UA with SENP1. IGROV1 CR cells pretreated with MG132 (10 μM, 1 h) were incubated with DMSO or UA for 4 h before being shifted to indicated temperatures. SENP1 stability was analyzed by using Western blot against SENP1 antibody. Right panel, quantification of non‐denatured SENP1 fraction shown in the left panel. (B) Cell‐free thermal shift assay to examine interactions of UA with SENP1. Purified SENP1 proteins were incubated with DMSO or UA for 4 h before being shifted to the indicated temperatures. SENP1 stability was analyzed by using Western blot against SENP1 antibody. Right panel, quantification of non‐denatured SENP1 fraction shown in the left panel. […] Stability of SENP1(C603A) was analyzed by using Western blot against SENP1 antibody. […] Left; Ultra‐high performance liquid‐chromatography‐MS/MS analyses of associated UA in indicated samples, right; quantification of data shown in left (the binding affinity of UA with SENP1‐C603A was normalized as 1). […]
FIGURE 3 Identification of UAMMC9 from UA derivatives. […] Stability of SENP1(C603A) was analyzed by using Western blot against SENP1 antibody. […]
The qu anti ficatio n of immunohistochemical sta in ing wa s scored blindly at lea st by two […]

SMILES | thermal stabilization of SENP1 in cells
C[C@H]1[C@H](C)CC[C@]2(C(=O)O)CC[C@]3(C)C(=CC[C@@H]4[C@@]5(C)CC[C@H](O)C(C)(C)[C@@H]5CC[C@]43C)[C@H]12 [UA, ursolic acid, reference compound] | stabilized
C[C@H]1[C@H](C)CC[C@]2(C(=O)NCC(=O)N(C)CCO)CC[C@]3(C)C(=CC[C@@H]4[C@@]5(C)CC[C@H](O)C(C)(C)[C@@H]5CC[C@]43C)[C@H]12 [UAMMC9] | directly interacted with SENP1

Source: publication PMC8710297, “Identification of potent SENP1 inhibitors that inactivate SENP1/JAK2/STAT signaling pathway and overcome platinum drug resistance in ovarian cancer” (Clinical and Translational Medicine, 2021)
